Reference: patent US8318812B2, “Therapeutic agents for the treatment of lymphoid malignancies” (The Ohio State University Research Foundation, priority 2006, dated 2012)

What was measured:
[1] = system: Akt; test: Western blot of p-Akt and Akt in primary MCL cells; assay type: cell-based, Human
Experimental: (§1) Primary MCL cells were isolated from PBMC (with informed patient consent under a protocol approved by IRB) as described before. All the MCL patients were identified as outlined by the World Health Organization (WHO) classification. Human mantle cell lymphoma patient cell lines (Mino and Jeko) were obtained from Dr. Raymond Lai. Primary cells or MCL cell lines were incubated in RPMI 1640 media, supplemented with 10%-20% heat-inactivated fetal bovine serum, 2 mM L-glutamine and penicillin (100 U/mL)/streptomycin ([…]) at 37° C. in an atmosphere of 5% CO2. FTY720 was synthesized as previously described. Toxicity was determined by flow cytometry using Annexin-V-FITC and Propidium Iodide (PI) staining. Apoptotic cells were identified as Annexin-V+ and/or PI+ cells. Cells excluding both FITC and PI were considered viable. Western Blotting was performed as described previously using indicated antibodies. […]
(§2) FTY720 induced apoptosis is associated with down-modulation of Cyclin D1 and Akt. […] To determine if the FTY720 induced apoptosis is mediated through modulation of these targets relevant to the pathogenesis of the disease, we evaluated the effect of FTY720 on levels of Cyclin D1, p-Akt and Akt proteins by Wester Blotting analysis using specific antibodies in primary MCL cells and cell lines. […]

[2] = system: PP2A; test: PP2A activity (malachite green phosphatase assay) in lysates of CLL cells; assay type: cell-based, Human; details: 10 uM FTY720
Experimental: (§3) PP2A Activity: The protein phosphatase activity of total cellular lysate was determined by measuring the generation of free PO4 from the threonine phosphopeptide using the malachite green-phosphate complex assay as described by the manufacturer (Upstate, Charlottesville, […].). Cell lysates were prepared in a low detergent lysis buffer (1% Nonidet P-40, 10 mM HEPES, 0.5M NaCl, 10% Glycerol, 1 mM PMSF, 5 mM Benzamidine, 10 μg/ml leupeptin). The phosphatase assay was performed in a PP2A-specific reaction buffer (Upstate) using 750 μM phosphopeptide substrate. After 30-min incubation at 30° C. malachite dye was added, and free phosphate was measured by optical density at 650 nm. To avoid variability among different immunoprecipitated samples, the phosphatase activities were normalized with the amount of PP2A immunoprecipitated, as detected and quantified by western blot analysis of each treatment group.
In order to determine if FTY720 induced activation of PP2A enzyme in CD19^+ B cells from CLL patients were treated with 10 uM FTY720 for 0, 1, 2, 3, 4 and 15 hrs and the PP2A activity in the lysates were quantified using a functional assay following immunoprecipitation of PP2A enzyme. As reported previously in other systems, FTY720 induced a consistent 2-3 fold increase in PP2A activation with the peak response observed at 4 hour post treatment (FIG. 6a). […] Similar phenomenon was also observed in Ramos B cell line. FTY720 induced activation of PP2A in Ramos cell line as early as 3 hours and this induced PP2A activity was inhibited by okadaic acid (FIG. 7a-b).

[3] = system: Cyclin D1; test: Western blot of Cyclin D1 in primary MCL cells; assay type: cell-based, Human
Experimental: as §1, §2

[4] = system: PP2A; test: PP2A activity in lysates of Ramos B cell line; assay type: cell-based, Human
Experimental: as §3
In order to determine if FTY720 induced activation of PP2A enzyme in CD19^+ B cells from CLL patients were treated with 10 uM FTY720 for 0, 1, 2, 3, 4 and 15 hrs and the PP2A activity in the lysates were quantified using a functional assay following immunoprecipitation of PP2A enzyme. As reported previously in other systems, FTY720 induced a consistent 2-3 fold increase in PP2A activation with the peak response observed at 4 hour post treatment (FIG. 6a). […]

[5] = system: Raji cells; test: Raji disseminated lymphoma/leukemia SCID mouse xenograft model; assay type: in vivo, SCID mice
Experimental: In vivo therapeutic efficacy evaluation in a xenograft model: The in-vivo evaluation of FTY720 was carried out using the disseminated lymphoma bearing SCID mouse xenograft model. This model was generated using human Raji B cell line injected into SCID mice as previously described. Raji cells were cultured in RPMI1640+10% FBS. Confluent cultures with >95% viability were confirmed to express human CD19 by flow cytometry. […] female 6-8 week-old C.B.-17 SCID mice (Taconic Farm, Germantown, N.Y.) were injected with 2×10^6 cells intravenously (i.v) in 200 ul sterile PBS via the tail vein. Seventy two hours post inoculation, the animals were divided into 4 equal treatment groups. […] All the animals were monitored daily for signs of illness and sacrificed immediately if hind limb paralysis, respiratory distress or 30% body weight loss was noted. Body weight was measured once every week. […] The presences of the CD19^+ cells were evaluated in the bone marrow of these mice by flow cytometry. […]

[6] = system: primary MCL cells; test: Annexin V/PI toxicity in primary MCL cells; assay type: cell-based; details: Homo sapiens, WinNolin sigmoid inhibitory model
Experimental: (§4) Primary MCL cells were isolated from PBMC (with informed patient consent under a protocol approved by IRB) as described before. All the MCL patients were identified as outlined by the World Health Organization (WHO) classification. Human mantle cell lymphoma patient cell lines (Mino and Jeko) were obtained from Dr. Raymond Lai. Primary cells or MCL cell lines were incubated in RPMI 1640 media, supplemented with 10%-20% heat-inactivated fetal bovine serum, 2 mM L-glutamine and penicillin (100 U/mL)/streptomycin ([…]) at 37° C. in an atmosphere of 5% CO2. FTY720 was synthesized as previously described. Toxicity was determined by flow cytometry using Annexin-V-FITC and Propidium Iodide (PI) staining. Apoptotic cells were identified as Annexin-V+ and/or PI+ cells. Cells excluding both FITC and PI were considered viable. Western Blotting was performed as described previously using indicated antibodies. The PARP (Ab-2) and Caspase 9 antibodies were purchased from Oncogene/Calbiochem/EMD Biosciences (San Diego, Calif.). Cyclin D1, Akt, Actin, Mcl-1, p-ERK, ERK and Bcl-2 were obtained from Santa Cruz biotech (Santa Cruz, Calif.).
(§5) Several therapeutic agents, including fludarabine, chlorambucil, 2-chloro-2-deoxyadenosine and glucocorticoids, induce toxicity in B cell malignancies through activating caspases, the cysteine proteases of CED3/ICE family. […]

[7] = system: PARP; test: Western blot of PARP processing in Mino cells; assay type: cell-based, Human; details: Mino cells 24 hrs post treatment
Experimental: as §4, §5

CCCCCCCCc1ccc(CCC(N)(CO)CO)cc1.Cl [FTY720, 2-Amino-2-[2-(4-octylphenyl)ethyl]propane 1,3-diol hydrochloride]
p-Akt level [1]: decrease in p-Akt
increase in PP2A activation [2]: 2-3 fold
time of peak PP2A response [2]: 4 h
down-regulation of Cyclin D1 protein ([3]; 8 hrs post treatment): 35%
down-regulation of Cyclin D1 protein ([3]; 24 hrs): 70%
earliest time of FTY720 induced PP2A activation [4]: 3 h
median survival time ([5]; FTY720 5 mg/kg every day for 2 weeks i.p., 95% CI 39-53): 47 days
mice surviving without signs of disease ([5]; after a follow-up period of 200 days): 4 of the 12
IC50 [6]: 10.7 µM
PARP processing [7]: PARP processing comparable to the levels seen with Fludarabine
